From patent publication US10265374B2, “Occidiofungin formations and uses thereof” (MISSISSIPPI STATE UNIVERSITY, priority 2014, dated 2019)

Columns and labels:
[1] = tested on: wide array of fungi; settings: cited from earlier work
[2] = tested on: SW1088; assay: In vitro toxicity screening (CellTiter-Blue cell viability, 48 hours); format: cell-based, human; settings: SW1088 astrocytoma brain cancer cell line, mean of three independent experiments, read-out: TC50 (the source's name)
Excerpt: (§1) Cancer cell lines, OVCAR8 (Center for Cancer Research (OVAR.8; Sample ID 25)), SW1088 (ATCC-HTB-12), and Toledo (ATCC CRL-2631), and normal human neonatal dermal fibroblasts cell line (ATCC-PCS-201-010) were passaged and prepped as previously described (See References 15-17). OVCAR8, SW1088, and Toledo2631 are ovarian, brain, and B-cell lymphoma cancer cell lines, respectively. This panel of cell lines was chosen based, in part, on their being from very different cancer types in order to discern whether occidiofungin would have a broad spectrum activity towards cancer cell lines of vastly different parental organ/cell types. OVCAR8 cells are widely used in the field of cancer therapeutic research as a panel representative of ovarian cancer in screening experiments for identifying both ovarian-specific and non-specific (i.e., anti-neoplastic activity on multiple cancer cell types) therapeutic agents (See References 28-30). Similarly, SW1088 cells are widely used in the field of cancer therapeutic research as a panel representative of glioma (the most common brain cancer) in screening experiments for identifying both glioma-specific and non-specific therapeutic agents (See References 31-32). Toledo 2631 cells are derived from lymphoma cells, and are used in the field of cancer therapeutic research for identifying lymphoma-specific and non-specific therapeutic agents (See, e.g., Reference 33). […] Cell counts per plate were calculated to be approximately 50,000 cells/mL. A 10× stock solution of occidiofungin was prepared at 65 μM concentration in 10% dimethyl sulfoxide (DMSO). Two-fold serial dilutions on a 96 well plate were set up in triplicate with starting concentration of 6.5 μM and a final concentration of 3 nM. Bortezomib was used as a comparator for toxicity against human fibroblast and was serially diluted two-fold starting at a concentration of 5 μM and ending at 2.5 nM. Bortezomib is used clinically against myeloma and lymphoma cancers in patients refractory against other chemotherapeutics (See References 18, 19). Furthermore, bortezomib has shown efficacy against a variety of solid tumors and cancer cell lines, making this an appropriate comparison molecule in the panel of cell lines chosen (See References 34-35). The plates were then incubated at 37° C. in 5% CO2 for 48 hours. After 48 hours, cell viability was monitored using CellTiter-Blue (Promega) cell viability assay by measuring the fluorescence emission of a redox activated dye (579EX/584EM) using a POLARstar Omega microplate reader (BMG Labtech).

[3] = tested on: OVCAR8; assay: as above; format: cell-based, human
Excerpt: as §1

[4] = tested on: Toledo (ATCC CRL-2631); assay: as above; format: cell-based, human; settings: Toledo CRL-2631 B-cell lymphoma cell line, mean of three independent experiments, read-out: TC50 (the source's name)
Excerpt: as §1

[5] = tested on: Candida albicans; settings: Candida albicans (References 9, 10); cited from earlier work

## occidiofungin
[1]
  concentrations at which antifungal activity was observed: micromolar to sub micromolar
[2]
  CC50: 68 nM
[3]; OVCAR8 ovarian cancer cell line, 48 hours, mean of three independent experiments, read-out: TC50 (the source's name)
  CC50: 61 nM
[3]; cancer cell lines OVCAR8, SW1088, Toledo together
  activity against the cancer cell lines relative to what has been reported against Candida species: ten to twenty-fold higher
[4]
  CC50: 70 nM
[5]
  fungicidal activity compared with caspofungin: more rapid
